Data published in US11779597B2, “Method of treating Parkinson's and other neurodegenerative diseases” (Vector Vitale IP LLC, priority 2019, dated 2023).

Tests used:
rat microglial cells = experiment: Metabolic profile of nonsensitized rat microglial cells in vitro; assay type: cell-based
Protocol: (§1) Materials and methods: Rat microglial cells were isolated by mechanical (cell sieves) disintegration of the brain tissue (FIG. 30A, FIG. 30B and FIG. 30C) followed by fractionation of the tissue homogenate in Percoll density gradient (Microglia: Methods and Protocols, Edited by Bertrand Josef and Jose Luis Venero, Springer protocol. Humana Press, 2013, 350 p.) (FIG. 31). Before the collection of the brain tissue, decapitation was performed to avoid hemorrhage to the brain during sampling (FIG. 32). Decapitation was performed immediately after anesthesia to minimize the death of brain tissue, including microglial cells. All manipulations for the isolation of microglial cells were carried out using coolants. Circulating neutrophils were isolated from venous blood taken into a tube containing EDTA in a two-step Percoll gradient (Alsharif K F et al. Vascul Pharmacol. 2015 August; 71:201-7. doi: 10.1016/j.vph.2015.02.006)(FIG. 33A and FIG. 33B). Circulating monocytes were isolated from venous blood collected into a tube containing heparin in a two-step Hypaque gradient (Macrophages and dendritic cells: Methods and Protocols, Edited by Neil E. Reiner, NY, Humana Press, 2009: 368 P). The metabolic profile of phagocytes was characterized based on the pathway of arginine metabolism (levels of arginase activity and NO synthesis measured using photocolorimetric methods), the level of formation of intracellular reactive oxygen species (ROS) by esterases and the indices of phagocytic activity determined by flow cytofluorimetry, as well as according to the activation levels of NADH and NADPH oxidases determined in NBT test. Duration of treatment of phagocytes of all the above mentioned populations varied depending on the methodological characteristics of metabolic response. A 90 minute exposure to the drugs according to Kim et al., 1977 (cited above) was used to analyze their effects on oxidative metabolism and phagocytic activity. An 18 hour exposure according to Lastra et al., 2001 (cited above) was used to analyze the drug effects on arginine metabolic pathway. To analyze the effects of the drugs under study on the induced (stimulated) metabolic activity of phagocytes, the cells were treated with lipopolysaccharide (LPS) from E. coli (Sigma, USA) according to Haddad et al., 2009 (cited above).

[1] = system: LPS rat models of Parkinson's disease; experiment: Open field test; assay type: in vivo
From the text: Method. The open field test is a technique commonly used to measure locomotor activity of rodents and their level of exploratory activity in an unfamiliar environment, as well as assess the levels of fear of novelty, anxiety or an increase in orientation response in rodents (Denenberg V H, et al., Physiology and Behavior, 1969; 4:403-406; Pellow S et al., J Neurosci Methods. 1985; 14(3):149-67). Behavioral patterns measured in the open field test include: distance travelled in the outer and inner perimeter, duration of time spent in the outer and inner perimeter, the total distance travelled and a percentage of the number of internal squares crossed compared to the total number of squares.
The open field was a square chamber 100×100 cm in size and with walls 60 cm high. The chamber was illuminated by two LED bulbs, 60 watts each, hanging at a height of 2 m. An IP camera was used to record the rodent movement. The MATLAB-based software was used to analyze the parameters. The statistical analysis was performed using GraphPad Prism. Significance was set at <0.005. The data collected from the open field were analyzed using One-way ANOVA (Tukey test or Dunnett test) and Unpaired t-test or Mann-Whitney.
Data analysis and interpretation. A novel environment in which an animal finds itself evokes conflict between fear and a desire to explore this environment. These two behavioral tendencies are characterized by different temporal variations and different spatial advantages. In the analysis, an arena is divided into two zones: inner and outer. The total locomotor activity and time spent in the inner and outer zones are the most significant parameters for assessing the levels of anxiety in rats. […] An increase in attendance of the inner zone is interpreted as a decreased anxiety in the animal. The emotional and exploratory behavior of an animal can be affected by various disorders in such brain regions as the hippocampus and the amygdala. In addition, various substances that have anxiolytic, stimulating and muscle relaxant effects can influence the results of the experiment. FIG. 50A and FIG. 50B show an example of analysis of a rat trajectory in the experimental arena.
On the 1st day of the experiment, rats were either operated to model hemi-parkinsonism or sham operated. From the 9th to the 18th day of the experiment, the animals were injected either deuterium-depleted water or the test substance, according to their allocation into groups, for 10 days. On the 8th day of the experiment (before initiation of treatment—apomorphine test I) and on the 21st day of the experiment (after the end of administering the test substance —apomorphine test II) the animals underwent an apomorphine test to analyze the development of hemi-parkinsonism which correlates with the number of destroyed dopaminergic neurons. In addition, a follow-up analysis of fecal water content was carried out, i.e., before the start of treatment on the 8th day after the operation, as well as on the 21st (after the end of treatment) and the 28th day (before autopsy). On the 24th day of the experiment, behavioral tests were carried out in all groups. All animals were weighed before autopsy. During autopsy, ⅔ of animals from each group were sacrificed by cervical dislocation and brain and blood samples were collected for further biochemical and immunological tests. ⅓ of the animals were used for further immunohistochemical studies of the brain; for this purpose, under anesthesia, a procedure of fast, controlled and uniform fixation of the whole body of the animal was performed using 4% paraformaldehyde perfused through the heart of the rat to obtain the best preservation of the brain architecture for immunohistochemistry. Gage G J, et al., J Vis Exp. 2012 Jul. 30; (65).

[2] = system: rat peripheral blood monocytes; experiment: Metabolic profile of nonsensitized rat peripheral blood monocytes in vitro; assay type: cell-based
Protocol: as §1

[3] = regardless of the concentration, in vitro

^64Zn-enriched zinc aspartate [^64Zne-asp]
arginase activity of microglial cells on the background of LPS treatment (rat microglial cells; 2.5 μg/ml): moderately strengthened | LPS-stimulated activity of NO synthase (synthesis of nitrites) in microglial cells (rat microglial cells; 10 μg/ml): decreased | ROS production stimulated by LPS in microglial cells (rat microglial cells; 20 and 5 μg/ml): significantly inhibited | spontaneous esterase-dependent oxidative metabolism (intracellular ROS) in microglial cells (rat microglial cells; 20 and 10 μg/ml): stimulated | number of phagocytic cells in the microglial population (rat microglial cells; all concentrations studied): without affecting | phagocytic activity of microglial cells (rat microglial cells; all concentrations studied): moderately increased | spontaneous esterase-dependent oxidative metabolism (intracellular ROS) in microglial cells (rat microglial cells; concentrations ≤5 μg/ml): no statistically significant effect | ROS production stimulated by LPS in microglial cells (rat microglial cells; other concentrations): did not have any effect | spontaneous arginase activity of nonsensitized microglial cells (rat microglial cells; [3]): virtually no effect | spontaneous nitric oxide production by nonsensitized microglial cells (rat microglial cells; [3]): reduced | frequency of defecations (in words) ([1]; LPS + ^64Zn-asp versus LPS + deuterium-depleted water): increased | Number of defecations ([1]; LPS + ^64Zn-asp, Gr. V): 7 ± 2.582 | Number of groomings ([1]; LPS + ^64Zn-asp, Gr. V): 3.5 ± 1.354 | Number of rearings ([1]; LPS + ^64Zn-asp, Gr. V): 14.4 ± 6.687 | Time spent in the inner perimeter ([1]; LPS + ^64Zn-asp, Gr. V): 9.235 ± 9.344 s | Time spent in the outer perimeter ([1]; LPS + ^64Zn-asp, Gr. V): 290.8 ± 9.333 s | Total distance travelled, cm ([1]; LPS + ^64Zn-asp, Gr. V): 1056 ± 423 cm | levels of locomotor activity, anxiety or irritability (summary of behavioral tests) ([1]; findings of Example 7): no significant effects | total distance travelled, time in outer and inner perimeter, number of rearings and groomings (in words) ([1]; group V (LPS+^64Zn-asp) versus group IV (LPS)): did not have any effect | LPS-stimulated oxidase-dependent respiratory burst of monocytes [2]: no effect | production of nitric oxide by monocytes treated with LPS [2]: moderately increased | spontaneous esterase-dependent intracellular ROS production by monocytes [2]: decrease | intracellular ROS production by bacterial LPS-treated monocytes ([2]; 10 μg/ml): statistically significantly reduced | spontaneous oxidative metabolism dependent on NADH and NADPH oxidases (NBT test) in monocytes ([2]; 10 μg/ml): slightly increased | phagocytic activity of monocytes ([2]; concentrations ≤5 μg/ml): reduced | spontaneous production of nitrites by nonsensitized circulating monocytes ([2]; regardless of the concentration): did not change significantly | arginase activity of monocytes ([2]; resting cells and bacterial LPS-treated cells): absent
